Patent US20140274688A1, “MOLECULES HAVING CERTAIN PESTICIDAL UTILITIES, AND INTERMEDIATES, COMPOSITIONS, AND PROCESSES RELATED THERETO” (DOW AGROSCIENCES LLC, priority 2013, published 2014)

Tests used:
[1] = system: Beet Armyworm (Spodoptera exigua) ("BAW"); assay: Bioassay on Beet Armyworm (BAW), 128-well diet tray assay, percent mortality; assay type: in vivo; settings: for BAW rating (percent mortality class): Beet Armyworm, 128-well diet tray assay; for pest or weed control at 50 µg/cm2: Spodoptera exigua, read-out: BAW
Procedure, shortened: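 Larvae in covered diet trays held at 25 °C, 14:10 light-dark, for five to seven days. Percent mortality scored per well and averaged over eight wells per treatment.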

[2] = system: Cabbage Looper (Trichoplusia ni) ("CL"); assay: Bioassay on Cabbage Looper (CL), 128-well diet tray assay, percent mortality; assay type: in vivo; settings: for CL rating (percent mortality class): Cabbage Looper, 128-well diet tray assay; for pest or weed control at 50 µg/cm2: Trichoplusia ni, read-out: CL
Procedure, shortened: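 Larvae held in covered diet trays at 25 °C, 14:10 light-dark, for five to seven days. Percent mortality scored per well and averaged over eight wells.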

[3] = system: Green Peach Aphid ("GPA") (Myzus persicae); assay: Bioassay on Green Peach Aphid (GPA), foliar spray on cabbage seedlings, corrected % control; assay type: in vivo; settings: for GPA rating (corrected % control class): foliar spray on cabbage seedlings; for GPA: Table ABC (P), rating of corrected % control
[4] = system: Yellow Fever Mosquito "YFM" (Aedes aegypti); settings: for YFM rating (mortality class): Yellow Fever Mosquito larvae, 96-well plates; for YFM: Table ABC (P), rating of mortality, Yellow Fever Mosquito

Compound | BAW rating (percent mortality class) [1] | CL rating (percent mortality class) [2] | GPA rating (corrected % control class) [3] | YFM rating (mortality class) [4] | pest or weed control at 50 µg/cm2 [1] | pest or weed control at 50 µg/cm2 [2] | GPA [3] | YFM [4]
CC(C)c1ccccc1NC(=S)NC(=O)NCCc1ccc(-c2ncn(-c3ccc(OC(F)(F)F)cc3)n2)cc1 [F2, N-[2-isopropylphenyl]-N-[2-(4-{1-[4-(trifluoromethoxy)phenyl]-1H-1,2,4-triazol-3-yl}phenyl)ethyl]dicarbonimidothioic diamide] | A (50-100) | A (50-100) | B (More than 0-Less than 80) | A (80-100) | – | – | – | –
Cc1ccc(C(C)C)c(N2C(=O)CS/C2=N\C(=O)NCCc2ccc(-c3ncn(-c4ccc(OC(F)(F)F)cc4)n3)cc2)c1 [F5, (Z)-1-(3-(2-isopropyl-5-methylphenyl)-4-oxothiazolidin-2-ylidene)-3-(4-(1-(4-(trifluoromethoxy)phenyl)-1H-1,2,4-triazol-3-yl)phenethyl)urea] | A (50-100) | A (50-100) | A (80-100) | A (80-100) | – | – | – | –
COc1ccc(C(C)C)c(N2C(=O)CS/C2=N\C(=O)NCCc2ccc(-c3ncn(-c4ccc(OC(F)(F)F)cc4)n3)cc2)c1 [F6, (Z)-1-(3-(2-isopropyl-5-methoxyphenyl)-4-oxothiazolidin-2-ylidene)-3-(4-(1-(4-(trifluoromethoxy)phenyl)-1H-1,2,4-triazol-3-yl)phenethyl)urea] | A (50-100) | A (50-100) | B (More than 0-Less than 80) | A (80-100) | – | – | – | –
CC(Cc1ccc(-c2ncn(-c3ccc(OC(F)(F)F)cc3)n2)cc1)NC(=O)/N=C1\SCC(=O)N1c1ccccc1C(C)C (stereo not shown) [F7, (Z)-1-(3-(2-isopropylphenyl)-4-oxothiazolidin-2-ylidene)-3-(1-(4-(1-(4-(trifluoromethoxy)phenyl)-1H-1,2,4-triazol-3-yl)phenyl)propan-2-yl)urea] | A (50-100) | A (50-100) | B (More than 0-Less than 80) | A (80-100) | – | – | – | –
Cc1ccc(C(C)C)c(N2C(=O)CS/C2=N\C(=O)NCC(C)c2ccc(-c3ncn(-c4ccc(OC(F)(F)F)cc4)n3)cc2)c1 (stereo not shown) [F10, (Z)-1-(3-(2-isopropyl-5-methylphenyl)-4-oxothiazolidin-2-ylidene)-3-(2-(4-(1-(4-(trifluoromethoxy)phenyl)-1H-1,2,4-triazol-3-yl)phenyl)propyl)urea] | A (50-100) | A (50-100) | B (More than 0-Less than 80) | A (80-100) | – | – | – | –
CC(C)c1cccc(N2C(=O)CS/C2=N\C(=O)NCCc2ccc(-c3ncn(-c4ccc(OC(F)(F)F)cc4)n3)cc2)c1 [P51, (Z)-1-(3-(3-isopropylphenyl)-4-oxothiazolidin-2-ylidene)-3-(4-(1-(4-(trifluoromethoxy)phenyl)-1H-1,2,4-triazol-3-yl)phenethyl)urea] | – | – | – | – | 50 to 100% | 50 to 100% | B (More than 0-Less than 80) | A (80-100)
Cc1ccc(C(C)C)c(N2C(=O)CS/C2=N\C(=O)NCCCCc2ccc(-c3ncn(-c4ccc(C(F)(F)F)cc4)n3)cc2)c1 [P159, (Z)-1-(3-(2-isopropyl-5-methylphenyl)-4-oxothiazolidin-2-ylidene)-3-(4-(4-(1-(4-(trifluoromethyl)phenyl)-1H-1,2,4-triazol-3-yl)phenyl)butyl)urea] | – | – | – | – | 50 to 100% | 50 to 100% | B (More than 0-Less than 80) | A (80-100)
COc1ccc(C(C)C)c(N2C(=O)CS/C2=N\C(=O)NCC(C)c2ccc(-c3ncn(-c4ccc(OC(F)(F)F)cc4)n3)cc2)c1 (stereo not shown) [P679, (Z)-1-(3-(2-isopropyl-5-methoxyphenyl)-4-oxothiazolidin-2-ylidene)-3-(2-(4-(1-(4-(trifluoromethoxy)phenyl)-1H-1,2,4-triazol-3-yl)phenyl)propyl)urea] | – | – | – | – | 50 to 100% | 50 to 100% | – | A (80-100)
